# Measurements as given in PubChem BioAssay (NCI).
#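 Growth conditions: 96-well plates. Treatment: test compound, 48 hours, 5 concentrations. Analysis: linear interpolation between bracketing concentrations; unreached endpoints set to highest concentration. TGI is the concentration that stops growth completely.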
# Columns and labels:
# Assay in all cases: growth of human tumour cells (NCI), 48 h
# MOLT-4 leukemia = system: MOLT-4 leukemia
# U251 CNS = system: U251 CNS
# RXF 393 renal = system: RXF 393 renal
# IGROV1 ovarian = system: IGROV1 ovarian
# SK-MEL-28 melanoma = system: SK-MEL-28 melanoma
# M19-MEL melanoma = system: M19-MEL melanoma
# HOP-62 NSCLC = system: HOP-62 NSCLC
# HL-60(TB) leukemia = system: HL-60(TB) leukemia
# A498 renal = system: A498 renal
# SK-MEL-2 melanoma = system: SK-MEL-2 melanoma
# DLD-1 colon = system: DLD-1 colon
# SF-268 CNS = system: SF-268 CNS
# SN12C renal = system: SN12C renal
# MALME-3M melanoma = system: MALME-3M melanoma
# SF-295 CNS = system: SF-295 CNS
# NCI-H460 lung = system: NCI-H460 lung
# CAKI-1 renal = system: CAKI-1 renal
# HCC-2998 colon = system: HCC-2998 colon
# K-562 leukemia = system: K-562 leukemia
# DMS 273 small cell lung = system: DMS 273 small cell lung
# XF 498 CNS = system: XF 498 CNS
# UACC-257 melanoma = system: UACC-257 melanoma
# CCRF-CEM leukemia = system: CCRF-CEM leukemia
# SF-539 CNS = system: SF-539 CNS
# M14 melanoma = system: M14 melanoma
# COLO 205 colon = system: COLO 205 colon
# TK-10 renal = system: TK-10 renal
# HT29 colon = system: HT29 colon
# DMS 114 small cell lung = system: DMS 114 small cell lung
# 786-0 renal = system: 786-0 renal
# RPMI-8226 leukemia = system: RPMI-8226 leukemia
# KM20L2 colon = system: KM20L2 colon
# OVCAR-8 ovarian = system: OVCAR-8 ovarian
# ACHN renal = system: ACHN renal
# LOX IMVI melanoma = system: LOX IMVI melanoma
# HCT-116 colon = system: HCT-116 colon
# SNB-75 CNS = system: SNB-75 CNS
# LXFL 529 NSCLC = system: LXFL 529 NSCLC
# OVCAR-5 ovarian = system: OVCAR-5 ovarian
# SNB-19 CNS = system: SNB-19 CNS
# SK-MEL-5 melanoma = system: SK-MEL-5 melanoma
# HOP-92 NSCLC = system: HOP-92 NSCLC
# OVCAR-4 ovarian = system: OVCAR-4 ovarian
# EKVX NSCLC = system: EKVX NSCLC
# HOP-18 NSCLC = system: HOP-18 NSCLC
# UO-31 renal = system: UO-31 renal
# NCI-H522 lung = system: NCI-H522 lung
# SK-OV-3 ovarian = system: SK-OV-3 ovarian
# UACC-62 melanoma = system: UACC-62 melanoma
# KM12 colon = system: KM12 colon
# OVCAR-3 ovarian = system: OVCAR-3 ovarian
# A549 NSCLC = system: A549 NSCLC
# SNB-78 CNS = system: SNB-78 CNS
# HCT-15 colon = system: HCT-15 colon
# SR leukemia = system: SR leukemia
# NCI-H23 lung = system: NCI-H23 lung
# RXF-631 renal = system: RXF-631 renal
# NCI-H226 lung = system: NCI-H226 lung
compound,measurement,setting,value
C/C(CC(=O)Nc1cccc(C)c1C)=N\NC(N)=S,TGI,MOLT-4 leukemia,> 100 µM
same,TGI,U251 CNS,> 100 µM
same,TGI,RXF 393 renal,> 100 µM
same,TGI,IGROV1 ovarian,> 100 µM
same,TGI,SK-MEL-28 melanoma,> 100 µM
same,TGI,M19-MEL melanoma,> 100 µM
same,TGI,HOP-62 NSCLC,> 100 µM
same,TGI,HL-60(TB) leukemia,> 100 µM
same,TGI,A498 renal,> 100 µM
same,TGI,SK-MEL-2 melanoma,> 100 µM
same,TGI,DLD-1 colon,> 100 µM
same,TGI,SF-268 CNS,> 100 µM
same,TGI,SN12C renal,> 100 µM
same,TGI,MALME-3M melanoma,> 100 µM
same,TGI,SF-295 CNS,> 100 µM
same,TGI,NCI-H460 lung,> 100 µM
same,TGI,CAKI-1 renal,> 100 µM
same,TGI,HCC-2998 colon,> 100 µM
same,TGI,K-562 leukemia,> 100 µM
same,TGI,DMS 273 small cell lung,> 100 µM
same,TGI,XF 498 CNS,> 100 µM
same,TGI,UACC-257 melanoma,> 100 µM
same,TGI,CCRF-CEM leukemia,> 100 µM
same,TGI,SF-539 CNS,> 100 µM
same,TGI,M14 melanoma,> 100 µM
same,TGI,COLO 205 colon,> 100 µM
same,TGI,TK-10 renal,> 100 µM
same,TGI,HT29 colon,> 100 µM
same,TGI,DMS 114 small cell lung,> 100 µM
same,TGI,786-0 renal,> 100 µM
same,TGI,RPMI-8226 leukemia,> 100 µM
same,TGI,KM20L2 colon,> 100 µM
same,TGI,OVCAR-8 ovarian,> 100 µM
same,TGI,ACHN renal,> 100 µM
same,TGI,LOX IMVI melanoma,> 100 µM
same,TGI,HCT-116 colon,> 100 µM
same,TGI,SNB-75 CNS,> 100 µM
same,TGI,LXFL 529 NSCLC,> 100 µM
same,TGI,OVCAR-5 ovarian,> 100 µM
same,TGI,SNB-19 CNS,> 100 µM
same,TGI,SK-MEL-5 melanoma,> 100 µM
same,TGI,HOP-92 NSCLC,> 100 µM
same,TGI,OVCAR-4 ovarian,> 100 µM
same,TGI,EKVX NSCLC,> 100 µM
same,TGI,HOP-18 NSCLC,> 100 µM
same,TGI,UO-31 renal,> 100 µM
same,TGI,NCI-H522 lung,> 100 µM
same,TGI,SK-OV-3 ovarian,> 100 µM
same,TGI,UACC-62 melanoma,> 100 µM
same,TGI,KM12 colon,> 100 µM
same,TGI,OVCAR-3 ovarian,> 100 µM
same,TGI,A549 NSCLC,> 100 µM
same,TGI,SNB-78 CNS,> 100 µM
same,TGI,HCT-15 colon,> 100 µM
same,TGI,SR leukemia,56.5 µM
same,TGI,NCI-H23 lung,> 100 µM
same,TGI,RXF-631 renal,> 100 µM
same,TGI,NCI-H226 lung,> 100 µM
